Square brackets hold non-standard residues; d marks the D form. Peptide text beside a SMILES is read from it. Oic = O=C(O)[C@@H]1C[C@@H]2CCCC[C@@H]2N1; dOic = O=C(O)[C@H]1C[C@H]2CCCC[C@H]2N1; Tic = O=C(O)[C@@H]1Cc2ccccc2CN1
How the values were obtained:
[1] = tested on: proteasome ChT-L activity in SK-N-SH (ATCC HTB-11) cell lysates; experiment: ChT-L proteasome activity in lysates of treated SK-N-SH cells; type: cell-based, human
Method: […] The content of live cells was determined by the Trypan Blue-exclusion assay. The cells were harvested, washed twice in PBS, resuspended in dilution buffer (see above) and stored in −80 °C. To prepare lysates the thawed preparations were vortexed with glass beads and centrifuged for 5 min 5000× g (4 °C). The supernatant was centrifuged for 20 min 14,000× g (4 °C). The resulting supernatant—“crude lysate” was diluted to 1 mg/mL of total protein with dilution buffer. 1 μg of lysate per assay (reaction buffer: 50 mM Tris/HCl pH 8, 0.1 mM MgCl2, 0.2 mM ATP, 0.1 mM dithiothreitol, 50 μM Suc-LLVY-AMC) was used for determination of ChT-L activity in a 96-well format, as above.

[2] = tested on: 20S core proteasome α face pockets; experiment: Competition with Rpt C-terminal tail peptides for α face pockets (ChT-L activity); type: biochemical, human; conditions: Rpt peptide 1 μM added before TAT peptide; for Competition with Rpt tail peptides (in words, from radar plot scores): Rpt2 α3/α4, Rpt3 α1/α2, Rpt5 α5/α6, Rpt6 α2/α3 pocket, three to six experiments; for Enhanced (synergistic) activation with Rpt tail peptides (in words): Rpt5 or Rpt6 tails
Source text: As mentioned above, the binding pockets on the α face accept “anchors” from natural protein ligands of the 20S core. […] The 10-residue Rpt-derived C-terminal “tail” peptides (“Rpt peptides”) can be used as competitors with the Rpt subunits or with small allosteric ligands. Importantly, the Rpt peptides interject between the subunits with their C-termini, whereas TAT peptides, according to the modeling, use their N-termini for this purpose. To test the specificity of interactions between TAT compounds and the α face, we performed competition experiments. The 20S core was challenged with selected TAT compounds after treatment with Rpt peptides. We selected peptides of Rpt2 ([…]), Rpt3 ([…]), Rpt5 ([…]) and Rpt6 […]) subunits, docking in α3/α4, α1/α2, α5/α6 and α2/α3 pockets, respectively. Tails of Rpt2, 3, and 5 display the canonical HbYX motif, whereas the LeuTrpLys C-terminus of Rpt6 may be considered “pseudo-HbYX”, with a bulky Trp replacing Tyr. Results of the competition experiments are presented as radar plots in Figure 7. […] This pocket also emerged as the major binding site for (1) and (8). However, these compounds likely weakly competed with the Rpt2 tail for binding to the α3/α4 pocket as well. The α3/α4 pocket seemed to be favored by (6). […] These complex patterns point at the importance of allosteric effects between the α face ligands, the gate and the catalytic chamber.
Figure 7 TAT1 derivatives competed with selected C-terminal tails of Rpt (Regulatory Particle ATPases) subunits for binding to specific α face pockets. The scores presented in radar plots were calculated as ((relative activation by the [x] and Rpt tail)-(theoretical sum of activation by [x] and Rpt tail))/(theoretical sum of activation by [x] and Rpt tail), where [x] represent any TAT peptide. […] The positive scores for combinations of selected compounds with Rpt5 or Rpt6 tails indicated a presumed synergy in activation of the core. Average scores derived from three to six experiments are presented. The competition effects were statistically significant (at least p < 0.05) for Rpt3 peptide and (1) and (8), as well as for Rpt2 peptide and (6).
Human housekeeping core (20S) proteasome purified from erythrocytes was purchased from Boston Biochem, Inc. (Cambridge, MA) or from Enzo Life Sciences, Inc. (Farmingdale, NY). Multiple batches of the proteasomes were used and performed reproducibly. The stock proteasome was diluted to 0.2 mg/mL working solution in “dilution buffer” (50 mM Tris/HCl, pH 8, 20% glycerol). The following model peptide substrates, all releasing fluorescent 7-amino-4-methylcoumarin (AMC) reporter group after cleavage, were used: succinyl-LeuLeuValTyr-AMC (for the ChT-L peptidase; SucLLVY-AMC; Bachem Bioscience Inc., Philadelphia, PA), butoxycarbonyl-LeuArgArg-AMC (T-L; Bachem Bioscience Inc., Philadelphia, PA) and carbobenzoxy- LeuLeuGlu-AMC (PGPH; Enzo Life Sciences Inc., Farmingdale, NY). The substrates were used at concentration of 50 μM (ChT-L) or 100 μM (T-L, PGPH). Free AMC (Sigma-Aldrich, St. Louis, MO) was used as the standard. The C-terminal peptides derived from Rpt2, Rpt3, Rpt5 and Rpt6 were synthesized (standard solid-phase peptide chemistry) and purified to at least 98% purity by GenScript (Piscataway, NJ). The TAT peptides, Rpt peptides (except Rpt6) and the peptide substrates were dissolved in anhydrous dimethylsulfoxide (DMSO; Sigma-Aldrich, St. Louis, MO) and such stock solutions were stored at −20 °C. The total concentration of DMSO in final reaction mixtures never exceeded 3% (vol/vol). The Trp (tryptophan) -containing Rpt6 peptide was dissolved in ultrapure water and stored at −20 °C, protected from light. […]

[3] = molecular target: T1, human latent 20S core proteasome, chymotrypsin-like (ChT-L) activity (Homo sapiens, UniProt P25787+P60900); experiment: ChT-L peptidase activity of latent 20S proteasome (Suc-LLVY-AMC); type: biochemical; conditions: for Max Activation Fold ± SE: purified latent 20S, Tris/HCl pH 8, 50 μM Suc-LLVY-AMC, 37 °C, from fitted response curves, SEM
T1 construct: Human housekeeping core (20S) proteasome purified from erythrocytes; purchased Boston Biochem, Inc. or Enzo Life Sciences, Inc; host or cells: human erythrocytes (natural source)
Method: The stock proteasome was diluted to 0.2 mg/mL working solution in “dilution buffer” (50 mM Tris/HCl, pH 8, 20% glycerol). […] The substrates were used at concentration of 50 μM (ChT-L) or 100 μM (T-L, PGPH). […] The total concentration of DMSO in final reaction mixtures never exceeded 3% (vol/vol). […] The reaction was carried out in 96-well plates, in 100 μL of reaction mixture that consisted of 45 mM Tris/HCl, pH 8, 100 mM KCl, 1 mM EDTA (reaction buffer) and a fluorogenic peptide substrate, to which 200 ng (nearly […]) of proteasome were added. […] The proteasome was preincubated with a substrate for 10 min at room temperature, then 1 μL of DMSO or a desired concentration of a TAT peptide in 1 μL of DMSO were added. […] To test the competition with Rpt derived peptides, the Rpt peptide (1 μM) was added before the TAT peptide to the reaction mixture. The reaction rates were calculated from a linear segment of kinetic curves constructed from measurements in 1-min intervals.
A two-tailed t-test was applied to compare the means. The comparisons were allowing for unequal variances with a Welch correction. Abundance of proteasome conformers was compared with the chi squared test and two-sample proportion test. A significance level was set at 0.05. […] Reaction rates were calculated from a smoothed linear segment of kinetic traces using OriginPro 2019. Response curves (activity vs. compound concentration) were fitted with a nonlinear fitting application of OriginPro 2019. The AC50 and maximum activation fold was calculated based on the equations implemented to fit the response curves.

Row | SMILES | Proteasome ChT-L activity in lysates of treated cells versus control lysates (in words) ([1]; SK-N-SH cells, 1 µM peptide, 24 h, 1 μg lysate, 50 μM Suc-LLVY-AMC, n = 3–4) | Competition with Rpt tail peptides (in words, from radar plot scores) [2] | Enhanced (synergistic) activation with Rpt tail peptides (in words) [2] | Max Activation Fold ± SE [3] [fold] | Ability to activate ChT-L activity of latent 20S (in words) ([3]; titration, latent human 20S, Suc-LLVY-AMC, n = 3–8) | Abolition of ChT-L activity in cell lysates ([1]; 1 µM bortezomib added to lysates from control and TAT-exposed SK-N-SH cells) [%]
1 | N=C(N)NCCC[C@H](NC(=O)CN)C(=O)N[C@@H](CCCCN)C(=O)N[C@@H](CCCCN)C(=O)N[C@@H](CCCNC(=N)N)C(=O)N[C@@H](CCCNC(=N)N)C(=O)N[C@@H](CCC(N)=O)C(=O)N[C@@H](CCCNC(=N)N)C(=O)N[C@@H](CCCNC(=N)N)C(=O)N[C@@H](CCCNC(=N)N)C(=O)N1CCC[C@H]1C(=O)N[C@@H](CO)C(=O)O [(1)] | lack of significant activation | added a weakly negative score for the Rpt2 tail to the presumed major competitor Rpt3 | enhanced activation in the presence of one of Rpt tails, namely Rpt5 or Rpt6 |  |  | 
2 | N=C(N)NCCC[C@H](NC(=O)CN)C(=O)N[C@@H](CCCCN)C(=O)N1Cc2ccccc2C[C@H]1C(=O)N1[C@H](C(=O)N[C@@H](CCCNC(=N)N)C(=O)N[C@@H](CCC(N)=O)C(=O)N2Cc3ccccc3C[C@H]2C(=O)N2[C@@H](C(=O)N[C@@H](CCCNC(=N)N)C(=O)N3CCC[C@H]3C(=O)N[C@@H](CO)C(=O)O)C[C@H]3CCCC[C@H]32)C[C@@H]2CCCC[C@@H]21 [(2)] (H-GRK[Tic][Oic]RQ[Tic][dOic]RPS-OH; N-terminus and C-terminus assumed) |  | competing with Rpt2, Rpt3, and Rpt5 tails | synergy was especially pronounced for the Rpt6-(2) pair | 1.5 ± 0.26 | very poor activator | 
3 | N=C(N)NCCC[C@H](NC(=O)CN)C(=O)N[C@@H](CCCCN)C(=O)N1Cc2ccccc2C[C@H]1C(=O)N1[C@H](C(=O)N[C@@H](CCCNC(=N)N)C(=O)N[C@@H](CCC(N)=O)C(=O)N[C@@H](CCCNC(=N)N)C(=O)N[C@@H](CCCNC(=N)N)C(=O)N[C@@H](CCCNC(=N)N)C(=O)N2CCC[C@H]2C(=O)N[C@@H](CO)C(=O)O)C[C@@H]2CCCC[C@@H]21 [(3)] (H-GRK[Tic][Oic]RQRRRPS-OH; N-terminus and C-terminus assumed) |  |  |  | 3.3 ± 0.23 |  | 
4 | NCCCC[C@H](NC(=O)[C@H](CCCCN)NC(=O)[C@H](CCCCN)NC(=O)[C@@H]1C[C@@H]2CCCC[C@@H]2N1C(=O)[C@@H]1Cc2ccccc2CN1C(=O)[C@H](CCCCN)NC(=O)[C@H](CCCCN)NC(=O)[C@@H](N)CCCCN)C(=O)O [(6)] |  | Rpt2 tail was a major competitor | enhanced activation in the presence of one of Rpt tails, namely Rpt5 or Rpt6 |  |  | 
5 | CC(C)C[C@H](NC(=O)[C@H](Cc1ccccc1)NC(=O)c1cnccn1)B(O)O [bortezomib, reference compound] |  |  |  |  |  | > 85

Reference: paper PMC7145288, “New Peptide-Based Pharmacophore Activates 20S Proteasome” (Molecules, 2020)
